Results taken from ChEMBL document CHEMBL3414487, “Synthesis and biological activity of salinomycin conjugates with floxuridine” (Eur J Med Chem, 2015).
Values after ≈ are worked out from the molar mass of the structure shown.

How the values were obtained:
[1] = Antiproliferative activity against human HL60 cells assessed as growth inhibition after 72 hrs by MTT assay; type: functional, cell-based; conditions: HL-60, 72 h
[2] = Antiproliferative activity against human vincristine-resistant HL60/Vinc cells assessed as growth inhibition after 72 hrs by MTT assay; type: functional; conditions: Homo sapiens, HL60/vinc, 72 h
[3] = test system: LoVo; assay: Antiproliferative activity against human LoVo cells assessed as growth inhibition after 72 hrs by SRB method; type: functional, cell-based; conditions: Homo sapiens, LoVo, 72 h
[4] = Antiproliferative activity against human doxorubicin-resistant LoVo/DX cells assessed as growth inhibition after 72 hrs by SRB method; type: functional, cell-based
[5] = test system: HT-29; assay: Antiproliferative activity against human HT-29 cells assessed as growth inhibition after 72 hrs by SRB method; type: functional, cell-based; conditions: Homo sapiens, HT-29, 72 h
[6] = Antiproliferative activity against human LS180 cells assessed as growth inhibition after 72 hrs by SRB method; type: functional, cell-based; conditions: Homo sapiens, LS180, 72 h
[7] = Antiproliferative activity against human SW707 cells assessed as growth inhibition after 72 hrs by SRB method; type: functional, cell-based; conditions: Homo sapiens, SW707, 72 h
[8] = test system: BALB/3T3; assay: Antiproliferative activity against mouse BALB/3T3 cells assessed as growth inhibition after 72 hrs by SRB method; type: cell-based; conditions: BALB/3T3, 72 h
[9] = test system: HL-60; assay: Selectivity index, ratio of IC50 for mouse BALB/3T3 cells to IC50 for human HL60 cells; type: functional
[10] = Selectivity index, ratio of IC50 for mouse BALB/3T3 cells to IC50 for human HL60/Vinc cells; type: functional
[11] = test system: LoVo; assay: Selectivity index, ratio of IC50 for mouse BALB/3T3 cells to IC50 for human LoVo cells; type: functional
[12] = Selectivity index, ratio of IC50 for mouse BALB/3T3 cells to IC50 for human LoVo/DX cells; type: functional
[13] = test system: HT-29; assay: Selectivity index, ratio of IC50 for mouse BALB/3T3 cells to IC50 for human HT-29 cells; type: functional
[14] = Selectivity index, ratio of IC50 for mouse BALB/3T3 cells to IC50 for human LS180 cells; type: functional
[15] = Selectivity index, ratio of IC50 for mouse BALB/3T3 cells to IC50 for human SW707 cells; type: functional
[16] = test system: HL-60; assay: Resistance index, ratio of IC50 for human HL60/Vinc cells to IC50 for human HL60 cells
[17] = test system: LoVo; assay: Resistance index, ratio of IC50 for human LoVo/DX cells to IC50 for human LoVo cells
[18] = test system: Staphylococcus aureus; assay: Antimicrobial activity against Staphylococcus aureus […] 4163 after 18 hrs by two-fold serial microdilution method; type: functional
[19] = test system: Staphylococcus aureus; assay: Antimicrobial activity against Staphylococcus aureus ATCC 25923 after 18 hrs by two-fold serial microdilution method; type: functional; conditions: ATCC 25923, 18 h
[20] = test system: Staphylococcus aureus; assay: Antimicrobial activity against Staphylococcus aureus ATCC 6538 after 18 hrs by two-fold serial microdilution method; type: functional; conditions: ATCC 6538, 18 h
[21] = test system: Staphylococcus aureus; assay: Antimicrobial activity against Staphylococcus aureus ATCC 29213 after 18 hrs by two-fold serial microdilution method; type: functional; conditions: ATCC 29213, 18 h
[22] = test system: Staphylococcus epidermidis; assay: Antimicrobial activity against Staphylococcus epidermidis ATCC 12228 after 18 hrs by two-fold serial microdilution method; type: functional; conditions: ATCC 12228, 18 h
[23] = test system: Staphylococcus epidermidis; assay: Antimicrobial activity against Staphylococcus epidermidis ATCC 35984 after 18 hrs by two-fold serial microdilution method; type: functional; conditions: ATCC 35984, 18 h
[24] = test system: Staphylococcus aureus; assay: Antimicrobial activity against methicillin-resistant Staphylococcus aureus 452/11 after 18 hrs by two-fold serial microdilution method; type: functional; conditions: 452/11, 18 h
[25] = test system: Staphylococcus aureus; assay: Antimicrobial activity against methicillin-resistant Staphylococcus aureus 456/11 after 18 hrs by two-fold serial microdilution method; type: functional; conditions: 456/11, 18 h
[26] = test system: Staphylococcus aureus; assay: Antimicrobial activity against methicillin-resistant Staphylococcus aureus 462/11 after 18 hrs by two-fold serial microdilution method; type: functional; conditions: 462/11, 18 h
[27] = test system: Staphylococcus aureus; assay: Antimicrobial activity against methicillin-resistant Staphylococcus aureus 514/11 after 18 hrs by two-fold serial microdilution method; type: functional; conditions: 514/11, 18 h
[28] = test system: Staphylococcus aureus; assay: Antimicrobial activity against methicillin-resistant Staphylococcus aureus 522/12 after 18 hrs by two-fold serial microdilution method; type: functional; conditions: 522/12, 18 h
[29] = test system: Staphylococcus aureus; assay: Antimicrobial activity against methicillin-resistant Staphylococcus aureus 537/12 after 18 hrs by two-fold serial microdilution method; type: functional; conditions: 537/12, 18 h
[30] = test system: Staphylococcus aureus; assay: Antimicrobial activity against methicillin-resistant Staphylococcus aureus 572/12 after 18 hrs by two-fold serial microdilution method; type: functional; conditions: 572/12, 18 h
[31] = test system: Staphylococcus aureus; assay: Antimicrobial activity against methicillin-resistant Staphylococcus aureus 573/12 after 18 hrs by two-fold serial microdilution method; type: functional; conditions: 573/12, 18 h
[32] = test system: Staphylococcus aureus; assay: Antimicrobial activity against methicillin-resistant Staphylococcus aureus 585/12 after 18 hrs by two-fold serial microdilution method; type: functional; conditions: 585/12, 18 h
[33] = test system: Staphylococcus aureus; assay: Antimicrobial activity against methicillin-resistant Staphylococcus aureus 586/12 after 18 hrs by two-fold serial microdilution method; type: functional; conditions: 586/12, 18 h
[34] = test system: Staphylococcus epidermidis; assay: Antimicrobial activity against methicillin-resistant Staphylococcus epidermidis 459/11 after 18 hrs by two-fold serial microdilution method; type: functional; conditions: 459/11, 18 h
[35] = test system: Staphylococcus epidermidis; assay: Antimicrobial activity against methicillin-resistant Staphylococcus epidermidis 460/11 after 18 hrs by two-fold serial microdilution method; type: functional; conditions: 460/11, 18 h
[36] = test system: Staphylococcus epidermidis; assay: Antimicrobial activity against methicillin-resistant Staphylococcus epidermidis 461/11 after 18 hrs by two-fold serial microdilution method; type: functional; conditions: 461/11, 18 h
[37] = test system: Staphylococcus epidermidis; assay: Antimicrobial activity against methicillin-resistant Staphylococcus epidermidis 466/11 after 18 hrs by two-fold serial microdilution method; type: functional; conditions: 466/11, 18 h
[38] = test system: Staphylococcus epidermidis; assay: Antimicrobial activity against methicillin-resistant Staphylococcus epidermidis 467/11 after 18 hrs by two-fold serial microdilution method; type: functional; conditions: 467/11, 18 h
[39] = test system: Staphylococcus epidermidis; assay: Antimicrobial activity against methicillin-resistant Staphylococcus epidermidis 468/11 after 18 hrs by two-fold serial microdilution method; type: functional; conditions: 468/11, 18 h
[40] = test system: Staphylococcus epidermidis; assay: Antimicrobial activity against methicillin-resistant Staphylococcus epidermidis 469/11 after 18 hrs by two-fold serial microdilution method; type: functional; conditions: 469/11, 18 h
[41] = test system: Staphylococcus epidermidis; assay: Antimicrobial activity against methicillin-resistant Staphylococcus epidermidis 470/11 after 18 hrs by two-fold serial microdilution method; type: functional; conditions: 470/11, 18 h
[42] = test system: Staphylococcus epidermidis; assay: Antimicrobial activity against methicillin-resistant Staphylococcus epidermidis 488/11 after 18 hrs by two-fold serial microdilution method; type: functional; conditions: 488/11, 18 h
[43] = test system: Staphylococcus epidermidis; assay: Antimicrobial activity against methicillin-resistant Staphylococcus epidermidis 489/11 after 18 hrs by two-fold serial microdilution method; type: functional; conditions: 489/11, 18 h

In the case of O=c1[nH]cc(F)c(=O)[nH]1 [FLUOROURACIL], the IC50 [1] is reported as 22.5 µM, the IC50 [2] is reported as 21.2 µM and the IC50 [3] is reported as 4.69 µM. For the same compound, the IC50 [4] was 6 µM, the IC50 [5] was 25.1 µM and the IC50 [6] was 38.9 µM. For the same compound, the IC50 [7] was 20.5 µM, the IC50 [8] was 3.23 µM and the “Selectivity Index” value [9] was 0.14. For the same compound, the “Selectivity Index” value [10] was 0.15, the “Selectivity Index” value [11] was 0.69 and the “Selectivity Index” value [12] was 0.54. For the same compound, the “Selectivity Index” value [13] was 0.13, the “Selectivity Index” value [14] was 0.08 and the “Selectivity Index” value [15] was 0.16. For the same compound, the “Ratio IC50” value [16] was 0.94, the “Ratio IC50” value [17] was 1.28 and the MIC [18] was 1.92 µM (≈ 0.25 µg/mL). For the same compound, the MIC [19] was 1.92 µM (≈ 0.25 µg/mL), the MIC [20] was 3.85 µM (≈ 0.501 µg/mL) and the MIC [21] was 3.85 µM (≈ 0.501 µg/mL). For the same compound, the MIC [22] was 3.85 µM (≈ 0.501 µg/mL), the MIC [23] was 1.92 µM (≈ 0.25 µg/mL) and the MIC [24] was 3.85 µM (≈ 0.501 µg/mL). It also gave an MIC [25] of 3.85 µM (≈ 0.501 µg/mL), an MIC [26] of 7.69 µM (≈ 1 µg/mL) and an MIC [27] of 3.85 µM (≈ 0.501 µg/mL). It also gave an MIC [28] of 7.69 µM (≈ 1 µg/mL), an MIC [29] of 7.69 µM (≈ 1 µg/mL) and an MIC [30] of 3.85 µM (≈ 0.501 µg/mL). It also gave an MIC [31] of 3.85 µM (≈ 0.501 µg/mL), an MIC [32] of 3.85 µM (≈ 0.501 µg/mL) and an MIC [33] of 3.85 µM (≈ 0.501 µg/mL). It also gave an MIC [34] of 3.85 µM (≈ 0.501 µg/mL), an MIC [35] of 1.92 µM (≈ 0.25 µg/mL) and an MIC [36] of 0.96 µM (≈ 0.125 µg/mL). The MIC [37] was 0.48 µM (≈ 0.0624 µg/mL), the MIC [38] was 0.48 µM (≈ 0.0624 µg/mL) and the MIC [39] was 0.48 µM (≈ 0.0624 µg/mL). For the same compound, the MIC [40] was 1.92 µM (≈ 0.25 µg/mL), the MIC [41] was 0.48 µM (≈ 0.0624 µg/mL) and the MIC [42] was 1.92 µM (≈ 0.25 µg/mL). The MIC [43] was 0.48 µM (≈ 0.0624 µg/mL).
